The record followed here is US10517889B2, “Modulators of SMAD7 expression” (Ionis Pharmaceuticals, Inc., priority 2017, dated 2019).

Strand notation (5' to 3'): a small letter for the sugar, then the base; units joined by * are phosphorothioate-linked, units joined directly phosphodiester-linked; [ ] holds rarer units or linkages, { } end groups; capitals alone tell only the bases. k = constrained ethyl (cEt); [5mC] = 5-methylcytosine; d = 2'-deoxy (DNA)

The subject of the series is human SMAD7 mRNA. The series can be described thus: Antisense inhibition of human SMAD7 mRNA expression in Hep3B cells by 3-10-3 cEt gapmers, 10,000 nM, electroporation (Example 2). It is filed as cell-based. The conditions noted are these: approximately 24 hours. In short, it runs like this: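 Percent inhibition of SMAD7 mRNA, relative to untreated cells, after ~24 h exposure of electroporated Hep3B cells to 10,000 nM cEt gapmer; levels by qRT-PCR, corrected for total RNA.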

Where [1] appears, read: Hep3B cells, electroporation, 10,000 nM antisense oligonucleotide, RTS5062, relative to untreated control cells.
The mark [2] stands for this setting: Hep3B cells, electroporation with 10,000 nM antisense oligonucleotide, SMAD7 mRNA by RT-PCR (RTS5062), relative to untreated control cells.
The mark [3] stands for this setting: SMAD7 mRNA, Hep3B cells, electroporation with 10,000 nM antisense oligonucleotide, primer probe set RTS5062, relative to untreated control cells.
The mark [4] stands for this setting: Hep3B cells, electroporation with 10,000 nM antisense oligonucleotide, primer probe set RTS5062, relative to untreated control cells.

In the case of “790618 (kA*kG*k[5mC]*dA*d[5mC]*dT*dA*d[5mC]*dA*dA*dT*dG*d[5mC]*kT*kA*kA; antisense) [compound 790618]”, under “SMAD7 mRNA, Hep3B cells, 10,000 nM antisense oligonucleotide, electroporation, primer probe set RTS5062, relative to untreated control cells”, the “% Inhibition” value came out at 24%.
“799281 (antisense k[5mC]*kA*k[5mC]*dA*dG*d[5mC]*dA*d[5mC]*d[5mC]*dT*dT*dG*dT*k[5mC]*kA*k[5mC]) [compound 799281]”: the “% inhibition of SMAD7 mRNA expression” value under setting [1] is given as 25%.
Consider “799738 (antisense kT*k[5mC]*kA*dA*dA*dA*dA*dA*dT*dG*dT*d[5mC]*d[5mC]*k[5mC]*k[5mC]*kA) [compound 799738]”, for which, under setting [1], the “% inhibition of SMAD7 mRNA expression” value came to 50%.
For the substance “830181 (antisense kG*k[5mC]*kG*dG*d[5mC]*dT*dT*d[5mC]*d[5mC]*dT*dG*dT*dG*k[5mC]*k[5mC]*k[5mC]) [compound 830181]”, the “% Inhibition” value under setting [2] amounted to 10%.
On the same count and under the same terms, for “798850 (k[5mC]*kA*kG*d[5mC]*dT*dG*dG*dA*dT*dG*d[5mC]*d[5mC]*dG*k[5mC]*kA*kG; antisense) [compound 798850]” the value was 12%.
In the case of “829800 (kG*kT*k[5mC]*dG*dG*d[5mC]*dT*dA*dA*dG*dG*dT*dG*kA*kT*kG; antisense) [compound 829800]”, under setting [3], the “% Inhibition” value amounted to 30%.
For “798843 (k[5mC]*kT*kG*d[5mC]*dA*d[5mC]*d[5mC]*dA*dG*d[5mC]*dT*dG*dA*k[5mC]*kT*k[5mC]; antisense) [compound 798843]”, under setting [2], the “% Inhibition” value worked out at 37%.
Same read-out and setting: for “799941 (antisense kT*kT*kT*dA*d[5mC]*dT*dA*d[5mC]*d[5mC]*dT*dT*d[5mC]*d[5mC]*kA*kG*kA) [compound 799941]” the value was 44%; for “800002 (k[5mC]*k[5mC]*k[5mC]*d[5mC]*dA*dA*dG*dA*dT*dT*d[5mC]*d[5mC]*dA*kT*kT*kT; antisense) [compound 800002]”, 0%; for “830174 (antisense kG*kA*kG*dA*dG*dG*dT*dG*dT*dT*dT*d[5mC]*d[5mC]*kA*kA*kG) [compound 830174]”, 49%.
For the substance “798775 (k[5mC]*k[5mC]*kT*d[5mC]*dT*dT*dG*dA*d[5mC]*dT*dT*d[5mC]*d[5mC]*kG*kA*kG; antisense) [compound 798775]”, the “% inhibition of SMAD7 mRNA expression” value under setting [4] is 0%.
Consider “798982 (antisense k[5mC]*kT*kT*d[5mC]*dA*dT*dA*d[5mC]*dA*d[5mC]*dT*dG*dT*kG*kT*kT) [compound 798982]”, for which, under setting [4], the “% Inhibition” value was 45%.
In the case of “830105 (kT*kT*kA*dA*dG*d[5mC]*d[5mC]*d[5mC]*dG*d[5mC]*dT*d[5mC]*dT*k[5mC]*kA*kG; antisense) [compound 830105]”, the “% Inhibition” value under setting [2] is 48%.
Consider “799912 (antisense k[5mC]*kT*k[5mC]*dA*dG*dA*dG*dG*dA*dA*dG*dG*dG*kT*kG*kG) [compound 799912]”, for which the “% Inhibition” value (Hep3B cells, 10,000 nM antisense oligonucleotide, electroporation, RT-PCR primer probe set RTS5062, relative to untreated control cells) is 22%.
As to “799243 (k[5mC]*k[5mC]*kA*d[5mC]*dT*dG*dG*dT*dG*dT*dT*d[5mC]*dG*kA*k[5mC]*kG; antisense) [compound 799243]”, the “% inhibition of SMAD7 mRNA expression” value under setting [4] worked out at 19%.
Still for that read-out and setting: for “799482 (antisense kG*kA*kA*dA*dA*dG*d[5mC]*d[5mC]*dG*dG*dG*d[5mC]*dA*kT*k[5mC]*kT) [compound 799482]” the value was 30%.
Take “799515 (antisense k[5mC]*k[5mC]*k[5mC]*d[5mC]*dA*dG*dA*d[5mC]*d[5mC]*dT*dG*d[5mC]*dT*kA*kA*kG) [compound 799515]”: the “% inhibition of SMAD7 mRNA expression” value under setting [1] amounted to 38%.
For “829945 (kG*k[5mC]*k[5mC]*dA*dG*dT*dT*dA*dA*dT*d[5mC]*dA*dT*kT*kA*k[5mC]; antisense) [compound 829945]”, the “% Inhibition” value under setting [3] was determined as 31%.
As to “799523 (antisense kG*kG*k[5mC]*dA*dG*dA*dA*dG*dG*d[5mC]*dT*d[5mC]*dT*k[5mC]*kT*k[5mC]) [compound 799523]”, the “% inhibition of SMAD7 mRNA expression” value under setting [1] came out at 28%.
For the substance “829974 (kA*kA*kA*dA*dG*dA*dG*dG*d[5mC]*d[5mC]*dG*d[5mC]*d[5mC]*kT*kG*kG; antisense) [compound 829974]”, under setting [3], the “% Inhibition” value came out at 27%.
